Earlier results as cited in patent US4801594A, “Aromatase inhibitors” (Eli Lilly and Company, priority 1984, dated 1989).

System: breast cancer
Settings: known aromatase inhibitors; see Cancer Research, Vol. 42, Suppl. 8: 3261s (1982)

| SMILES | effect in treatment of breast cancer |
| --- | --- |
| CCC1(c2ccc(N)cc2)CCC(=O)NC1=O (centres unmarked) [aminoglutethimide] | beneficial effect |
| C[C@]12C=CC(=O)C=C1CC[C@@H]1[C@@H]2CC[C@]2(C)OC(=O)CC[C@@H]12 [testolactone] | beneficial effect |
